Laboratory results taken from patent US20220010352A1, “ANIMAL MODELS AND SCREENING METHODS FOR INTRAOCULAR DISEASE OR DISORDER” (ZHUHAI QlWEl BIO-TECHNOLOGY LTD., priority 2018, published 2022).
“Also recorded” adds a separate entry of the source.

Assays:
Bacillus megaterium [1] = assay: antibiotic sensitivity screening test in petri dishes (minimum inhibitory concentration method); assay type: cell-based; conditions: MIC method, 10^-1 to 10^-5 mg/mL in medium, FIG. 1
Experimental: The bacterial culture medium (HuanKai Microbial, Guangzhou, China) containing peptone 5 g, beef extract 3 g, NaCl 5 g, agar 15 g, and MnSO4 5 mg in 1 L ddH2O (pH=7.2) was prepared in conical flask (Drtech, Guangzhou, China) and was sterilized in the autoclave (HIRAYAMA, HEV-50, Japan) at 121° C. for 30 min. Bacillus megaterium (total 1*10^7 per culture) was cultured in the incubator (HettCube 200, Germany) at 37° C. for 24 h.
To test whether antibiotics can control the growth of Bacillus megaterium in vitro and in vivo, we first carried out an antibiotic sensitivity screening test in petri dishes which were made in example 1. The sensitivity of Bacillus megaterium to several major antimicrobial agents including ampicillin, vancomycin, neomycin, metronidazole and tetracycline were examined using the minimum inhibitory concentration (MIC) method. Ampicillin, vancomycin, neomycin, metronidazole, and tetracycline (purchased from Sigma, USA) at various concentrations (10^−1, 10^−2, 10^−3, 10^−4, 10^−5 mg/mL) were added into cooled medium.

Bacillus megaterium [2] = assay: Bacillus megaterium subretinal inoculation model, bacteria-induced drusenoid pathology in retinal tissues; assay type: in vivo, Macaca fascicularis; conditions: intravitreous, 0.5 mg, one injection on Day 2 post bacterial inoculation; macaque; compared to control; FIG. 8
Experimental: The macaques were sedated by intramuscular injection of a mixture of tiletamine hydrochloride (2.5 mg/kg) and xolazepam hydrochloride (2.5 mg/kg). After instilling topical anesthesia (0.5% proparacaine hydrochloride), the eyes were immediately visualized in vivo using a light microscope. The pupils were then dilated with 0.5% tropicamide and 0.5% phenylephrine to obtain the fundus photographs. […] Under microscopic monitoring, 20 μl of PBS (with or without bacteria) was injected into the subretinal space between photo receptors and RPE (retinal pigment epithelium), using a NanoFil Syringe Nanofil-100 for Microinjection (World Precision Instruments, USA). All procedures were done using sterile instruments. The macaque was euthanized 47 days post inoculation and the eyeball was enucleated for histological analyses. The eyeballs were fixed in 4% paraformaldehyde for 48 h and then embedded in paraffin. Sections were cut on a microtome at 6 μm and stained with H&E.
We examined whether subretinal inoculation of AH and VH cultures, as well as the cultured single species of B. megaterium led to AMD like pathology in macaque. About 20 CFU of bacteria (in 20 μl PBS) from AH, VH, and B. megaterium cultures were injected subretinally and PBS was used as a control (illustrated in FIG. 6). […]

[3] = ocular complications after intraocular administration in monkey; assay type: in vivo; conditions: data not shown
Text: Next, we used the Bacillus megaterium subretinal inoculation model to test whether antibiotics might be able to change the bacteria-induced drusenoid pathology in monkey retinal tissues.

## Cc1ncc([N+](=O)[O-])n1CCO [metronidazole]
Bacillus megaterium [1]
  effectiveness in controlling the growth of Bacillus megaterium, fold less effective (relative to neomycin): 10000 fold

## CN[C@H](CC(C)C)C(=O)N[C@H]1C(=O)N[C@@H](CC(N)=O)C(=O)N[C@H]2C(=O)N[C@H]3C(=O)N[C@H](C(=O)N[C@H](C(=O)O)c4cc(O)cc(O)c4-c4cc3ccc4O)[C@H](O)c3ccc(c(Cl)c3)Oc3cc2cc(c3O[C@@H]2O[C@H](CO)[C@@H](O)[C@H](O)[C@H]2O[C@H]2C[C@](C)(N)[C@H](O)[C@H](C)O2)Oc2ccc(cc2Cl)[C@H]1O [vancomycin]
Bacillus megaterium [2]
  size of drusenoid lesion in retinal tissue: reduction in the size of drusenoid lesion

## neomycin
Bacillus megaterium [1]; 37° C. 24 h
  sensitivity of Bacillus megaterium to antimicrobial agent / in vitro activity controlling the expansion of Bacillus megaterium: most sensitive; also recorded: best in vitro activity
[3]
  ocular complications: significant ocular complications including ophthalmatrophia
